# From patent US20240218022A1, “ANTI-VISTA MACROCYCLIC PEPTIDES AND COMPOSITIONS” (BRISTOL-MYERS SQUIBB COMPANY, priority 2022, published 2024)
# Positions of bridges follow the written chain, without caps; N, C: chain ends. Non-standard residues stand in square brackets, D forms with d. Residues, ends and D or L forms follow the SMILES beside them. 2Nal = N[C@@H](Cc1ccc2ccccc2c1)C(=O)O; Tic = O=C(O)[C@@H]1Cc2ccccc2CN1; Cit = NC(=O)NCCC[C@H](N)C(=O)O; Ahp(2) = CCCCC[C@H](N)C(=O)O; NMeNle = CCCC[C@H](NC)C(=O)O; NHexGly = CCCCCCNCC(=O)O; Nle = CCCC[C@H](N)C(=O)O; Orn = NCCC[C@H](N)C(=O)O
# Biological target: T1, mouse VISTA (mVISTA) (Mus musculus, UniProt Q9D659)
# T1 construct: expressed in transfected cells; host or cells: Human embryonic kidney 293T cells
# T1 sequence (Q9D659 33-308): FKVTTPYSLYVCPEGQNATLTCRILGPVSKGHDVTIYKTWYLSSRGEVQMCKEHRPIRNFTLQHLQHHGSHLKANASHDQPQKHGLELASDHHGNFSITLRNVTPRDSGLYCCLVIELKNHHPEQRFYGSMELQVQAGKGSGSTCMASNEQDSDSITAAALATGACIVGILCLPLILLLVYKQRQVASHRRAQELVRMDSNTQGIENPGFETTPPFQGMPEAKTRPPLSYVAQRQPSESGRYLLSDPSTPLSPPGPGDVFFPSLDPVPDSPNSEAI
# Test: Cell-Based Binding High-Content Assay For mVISTA (HC CBA mVISTA)
# Settings: cell-based binding high-content assay, mVISTA; the 16th table; read-out: HC CBA mVISTA IC50
# How it was run: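 Read-out: Alexa 647–streptavidin signal imaged on fixed, Hoechst-stained mVISTA-293T cells, with IC50 taken from a four-parameter logistic curve. Compounds competed with 2 nM biotinylated peptide for 30 min at room temperature, tested under both no-wash and wash (1 h compound, media exchange, 1 h) formats.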
row,Structure (SMILES),IC50 [nM]
1,CCCCCCN1CC(=O)N[C@@H](Cc2ccc(O)cc2)C(=O)N[C@@H](CCCC)C(=O)N[C@@H](CC(N)=O)C(=O)N[C@@H](CCCNC(N)=O)C(=O)N2Cc3ccccc3C[C@H]2C(=O)N[C@@H](CCCCC)C(=O)N2CCC[C@H]2C(=O)N[C@@H](C(C)C)C(=O)N[C@@H](CO)C(=O)N[C@H](C(=O)NCC(N)=O)CSCC(=O)N[C@@H](Cc2ccc3ccccc3c2)C(=O)N[C@@H](Cc2ccc(O)cc2)C(=O)N[C@@H](CC(=O)O)C1=O [Ex 1306] ({CH2CO}-[2Nal]YD[NHexGly]Y[Nle]N[Cit][Tic][Ahp(2)]PVSCG-NH2; thioether N-14),25.2
2,CCCCCCN1CC(=O)N[C@@H](Cc2ccc(O)cc2)C(=O)N[C@@H](CCCC)C(=O)N[C@@H](CC(N)=O)C(=O)N[C@@H](CCCNC(=N)N)C(=O)N2Cc3ccccc3C[C@H]2C(=O)N[C@@H](CCCCC)C(=O)N2CCC[C@H]2C(=O)N[C@@H](C(C)C)C(=O)N[C@@H](CC(=O)O)C(=O)N[C@H](C(=O)NCC(N)=O)CSCC(=O)N[C@@H](Cc2ccc3ccccc3c2)C(=O)N[C@@H](Cc2ccc(O)cc2)C(=O)N[C@@H](CC(=O)O)C1=O [Ex 1307] ({CH2CO}-[2Nal]YD[NHexGly]Y[Nle]NR[Tic][Ahp(2)]PVDCG-NH2; thioether N-14),11.4
3,CCCCCCN1CC(=O)N[C@@H](Cc2ccc(O)cc2)C(=O)N[C@@H](CCCC)C(=O)N[C@@H](CC(N)=O)C(=O)N[C@@H](CCCNC(=N)N)C(=O)N(C)[C@@H](CCCC)C(=O)N[C@@H](CCCCC)C(=O)N2CCC[C@H]2C(=O)N[C@@H](C(C)C)C(=O)N[C@@H](CC(=O)O)C(=O)N[C@H](C(=O)NCC(=O)O)CSCC(=O)N[C@@H](Cc2ccc3ccccc3c2)C(=O)N[C@@H](Cc2ccc(O)cc2)C(=O)N[C@@H](CC(=O)O)C1=O [Ex 1308] ({CH2CO}-[2Nal]YD[NHexGly]Y[Nle]NR[NMeNle][Ahp(2)]PVDCG-OH; thioether N-14),9.5
4,CCCCCCN1CC(=O)N[C@@H](Cc2ccc(O)cc2)C(=O)N[C@@H](C(C)C)C(=O)NCC(=O)N[C@@H](CCCNC(=N)N)C(=O)N[C@@H](CC(C)C)C(=O)N[C@@H](CCCCC)C(=O)N2CCC[C@H]2C(=O)N[C@@H](C(C)C)C(=O)N[C@@H](CC(=O)O)C(=O)N[C@H](C(=O)N[C@@H](CC(C)C)C(N)=O)CSCC(=O)N[C@@H](Cc2ccc3ccccc3c2)C(=O)N[C@@H](Cc2ccc(O)cc2)C(=O)N[C@@H](CC(=O)O)C1=O [Ex 1309] ({CH2CO}-[2Nal]YD[NHexGly]YVGRL[Ahp(2)]PVDCL-NH2; thioether N-14),5.2
5,CCCCCCN1CC(=O)N[C@@H](Cc2ccc(O)cc2)C(=O)N[C@@H](C(C)C)C(=O)NCC(=O)N[C@@H](CCCNC(=N)N)C(=O)N[C@@H](CC(C)C)C(=O)N[C@@H](CCCCC)C(=O)N2CCC[C@H]2C(=O)N[C@@H](C(C)C)C(=O)N[C@@H](CC(=O)O)C(=O)N[C@H](C(=O)N[C@@H](CC(N)=O)C(N)=O)CSCC(=O)N[C@@H](Cc2ccc3ccccc3c2)C(=O)N[C@@H](Cc2ccc(O)cc2)C(=O)N[C@@H](CC(=O)O)C1=O [Ex 1310] ({CH2CO}-[2Nal]YD[NHexGly]YVGRL[Ahp(2)]PVDCN-NH2; thioether N-14),3.4
6,CCCCCCN1CC(=O)N[C@@H](Cc2ccc(O)cc2)C(=O)N[C@@H](CCCC)C(=O)N[C@@H](CC(N)=O)C(=O)N[C@@H](CCCNC(=N)N)C(=O)N[C@@H](CC(C)C)C(=O)N[C@@H](CCCCC)C(=O)N2CCC[C@H]2C(=O)N[C@@H](C(C)C)C(=O)N[C@@H](CC(=O)O)C(=O)N[C@H](C(=O)N[C@@H](CC(N)=O)C(N)=O)CSCC(=O)N[C@@H](Cc2ccc3ccccc3c2)C(=O)N[C@@H](Cc2ccc(O)cc2)C(=O)N[C@@H](CC(=O)O)C1=O [Ex 1311] ({CH2CO}-[2Nal]YD[NHexGly]Y[Nle]NRL[Ahp(2)]PVDCN-NH2; thioether N-14),8.3
7,CCCCCCN1CC(=O)N[C@@H](Cc2ccc(O)cc2)C(=O)N[C@@H](C(C)C)C(=O)NCC(=O)N[C@@H](CCCNC(=N)N)C(=O)N[C@@H](CC(C)C)C(=O)N[C@@H](CCCCC)C(=O)N2CCC[C@H]2C(=O)N[C@@H](C(C)C)C(=O)N[C@@H](CC(=O)O)C(=O)N[C@H](C(=O)N[C@@H](CCCNC(=N)N)C(N)=O)CSCC(=O)N[C@@H](Cc2ccc3ccccc3c2)C(=O)N[C@@H](Cc2ccc(O)cc2)C(=O)N[C@@H](CC(=O)O)C1=O [Ex 1312] ({CH2CO}-[2Nal]YD[NHexGly]YVGRL[Ahp(2)]PVDCR-NH2; thioether N-14),7.7

# Further lines, results first:
row,IC50 [nM],Structure (SMILES)
1,1.4,CCCCCCN1CC(=O)N[C@@H](Cc2ccc(O)cc2)C(=O)N[C@@H](C(C)C)C(=O)NCC(=O)N[C@@H](CCCNC(=N)N)C(=O)N[C@@H](CC(C)C)C(=O)N[C@@H](CCCCC)C(=O)N2CCC[C@H]2C(=O)N[C@@H](C(C)C)C(=O)N[C@@H](CC(=O)O)C(=O)N[C@H](C(=O)N[C@@H](CO)C(N)=O)CSCC(=O)N[C@@H](Cc2ccc3ccccc3c2)C(=O)N[C@@H](Cc2ccc(O)cc2)C(=O)N[C@@H](CC(=O)O)C1=O [Ex 1314] ({CH2CO}-[2Nal]YD[NHexGly]YVGRL[Ahp(2)]PVDCS-NH2; thioether N-14)
2,37.1,CCCCCCN1CC(=O)N[C@@H](Cc2ccc(O)cc2)C(=O)N[C@@H](CCCC)C(=O)N[C@@H](CC(N)=O)C(=O)N[C@@H](CCCNC(=N)N)C(=O)N[C@@H](CC(C)C)C(=O)N[C@@H](CCCCC)C(=O)N2CCC[C@H]2C(=O)N[C@@H](C(C)C)C(=O)N[C@@H](CC(=O)O)C(=O)N[C@H](C(=O)N[C@@H](CO)C(N)=O)CSCC(=O)N[C@@H](Cc2ccc3ccccc3c2)C(=O)N[C@@H](Cc2ccc(O)cc2)C(=O)N[C@@H](CC(=O)O)C1=O [Ex 1315] ({CH2CO}-[2Nal]YD[NHexGly]Y[Nle]NRL[Ahp(2)]PVDCS-NH2; thioether N-14)
3,10.6,CCCCCCN1CC(=O)N[C@@H](Cc2ccc(O)cc2)C(=O)N[C@@H](C(C)C)C(=O)NCC(=O)N[C@@H](CCCNC(N)=O)C(=O)N[C@@H](CC(C)C)C(=O)N[C@@H](CCCCC)C(=O)N2CCC[C@H]2C(=O)N[C@@H](C(C)C)C(=O)N[C@@H](CC(=O)O)C(=O)N[C@H](C(=O)N[C@@H](CO)C(N)=O)CSCC(=O)N[C@@H](Cc2ccc3ccccc3c2)C(=O)N[C@@H](Cc2ccc(O)cc2)C(=O)N[C@@H](CC(=O)O)C1=O [Ex 1316] ({CH2CO}-[2Nal]YD[NHexGly]YVG[Cit]L[Ahp(2)]PVDCS-NH2; thioether N-14)
4,17.5,CCCCCCN1CC(=O)N[C@@H](Cc2ccc(O)cc2)C(=O)N[C@@H](CCCC)C(=O)N[C@@H](CC(=O)O)C(=O)N[C@@H](CCCNC(=N)N)C(=O)N[C@@H](CC(C)C)C(=O)N[C@@H](CCCCC)C(=O)N2CCC[C@H]2C(=O)N[C@@H](C(C)C)C(=O)N[C@@H](CC(=O)O)C(=O)N[C@H](C(=O)N[C@@H](CO)C(N)=O)CSCC(=O)N[C@@H](Cc2ccc3ccccc3c2)C(=O)N[C@@H](Cc2ccc(O)cc2)C(=O)N[C@@H](CC(=O)O)C1=O [Ex 1317] ({CH2CO}-[2Nal]YD[NHexGly]Y[Nle]DRL[Ahp(2)]PVDCS-NH2; thioether N-14)
5,11.9,CCCCCCN1CC(=O)N[C@@H](Cc2ccc(O)cc2)C(=O)N[C@@H](CCCC)C(=O)N[C@@H](CC(=O)O)C(=O)N[C@@H](CCCNC(=N)N)C(=O)N(C)[C@@H](CCCC)C(=O)N[C@@H](CCCCC)C(=O)N2CCC[C@H]2C(=O)N[C@@H](C(C)C)C(=O)N[C@@H](CC(=O)O)C(=O)N[C@H](C(=O)N[C@@H](CO)C(N)=O)CSCC(=O)N[C@@H](Cc2ccc3ccccc3c2)C(=O)N[C@@H](Cc2ccc(O)cc2)C(=O)N[C@@H](CC(=O)O)C1=O [Ex 1318] ({CH2CO}-[2Nal]YD[NHexGly]Y[Nle]DR[NMeNle][Ahp(2)]PVDCS-NH2; thioether N-14)
6,13.7,CCCCCCN1CC(=O)N[C@@H](Cc2ccc(O)cc2)C(=O)N[C@@H](CCCC)C(=O)N[C@@H](CC(=O)O)C(=O)N[C@@H](CCCN)C(=O)N[C@@H](CC(C)C)C(=O)N[C@@H](CCCCC)C(=O)N2CCC[C@H]2C(=O)N[C@@H](C(C)C)C(=O)N[C@@H](CC(=O)O)C(=O)N[C@H](C(=O)N[C@@H](CO)C(N)=O)CSCC(=O)N[C@@H](Cc2ccc3ccccc3c2)C(=O)N[C@@H](Cc2ccc(O)cc2)C(=O)N[C@@H](CC(=O)O)C1=O [Ex 1319] ({CH2CO}-[2Nal]YD[NHexGly]Y[Nle]D[Orn]L[Ahp(2)]PVDCS-NH2; thioether N-14)
7,21.3,CCCCCCN1CC(=O)N[C@@H](Cc2ccc(O)cc2)C(=O)N[C@@H](CCCC)C(=O)N[C@@H](CC(=O)O)C(=O)N[C@@H](CCCN)C(=O)N(C)[C@@H](CCCC)C(=O)N[C@@H](CCCCC)C(=O)N2CCC[C@H]2C(=O)N[C@@H](C(C)C)C(=O)N[C@@H](CC(=O)O)C(=O)N[C@H](C(=O)N[C@@H](CO)C(N)=O)CSCC(=O)N[C@@H](Cc2ccc3ccccc3c2)C(=O)N[C@@H](Cc2ccc(O)cc2)C(=O)N[C@@H](CC(=O)O)C1=O [Ex 1320] ({CH2CO}-[2Nal]YD[NHexGly]Y[Nle]D[Orn][NMeNle][Ahp(2)]PVDCS-NH2; thioether N-14)
8,15.9,CCCCCCN1CC(=O)N[C@@H](Cc2ccc(O)cc2)C(=O)N[C@@H](CCCC)C(=O)N[C@@H](CC(N)=O)C(=O)N[C@@H](CCCNC(=N)N)C(=O)N[C@@H](CC(C)C)C(=O)N[C@@H](CCCCC)C(=O)N2CCC[C@H]2C(=O)N[C@@H](C(C)C)C(=O)N[C@@H](CC(=O)O)C(=O)N[C@H](C(=O)N[C@@H](Cc2c[nH]c3ccccc23)C(N)=O)CSCC(=O)N[C@@H](Cc2ccc3ccccc3c2)C(=O)N[C@@H](Cc2ccc(O)cc2)C(=O)N[C@@H](CC(=O)O)C1=O [Ex 1321] ({CH2CO}-[2Nal]YD[NHexGly]Y[Nle]NRL[Ahp(2)]PVDCW-NH2; thioether N-14)
